ChEMBL document CHEMBL4359906, “Design and synthesis of new N-terminal fatty acid modified-antimicrobial peptide analogues with potent in vitro biological activity” (Eur J Med Chem, 2019)
Values after ≈ are worked out from the molar mass of the structure shown. Active and inactive are the calls of the source. The rule behind the calls is not given here.

Columns and labels:
[1] = tested on: Escherichia coli; assay: Disruption of membrane integrity in Escherichia coli ATCC 25922 assessed as membrane damage by measuring PI fluorescence at 4 times of MIC incubated for 1 hr by PI dye based flow cytometric analysis (reference value: 1.35%); format: functional
[2] = tested on: Escherichia coli; assay: Ratio of antibacterial activity against Escherichia coli ATCC 25922 in presence of NaCl to antibacterial activity against Escherichia coli ATCC 25922; format: functional
[3] = tested on: Pseudomonas aeruginosa; assay: Antibacterial activity against Pseudomonas aeruginosa ATCC 27853 after 18 hrs by CLSI based broth microdilution method; format: functional; conditions: ATCC 27853, 18 h
[4] = tested on: Escherichia coli; assay: Induction of membrane disruption in Escherichia coli ATCC 25922 assessed as degeneration in membrane at 4 times of MIC after 2 hrs by SEM analysis; format: functional, organism-based
[5] = tested on: Escherichia coli; assay: Induction of inner membrane permeabilization in Escherichia coli ATCC 43837 assessed as increase in ONPG release at 1 to 2 times of MIC by ONPG dye based assay; format: organism-based
[6] = tested on: Klebsiella pneumoniae; assay: Potentiation of polymyxin B-induced antibacterial activity against Klebsiella pneumoniae ATCC 700603 assessed as FICI after 18 hrs by checker board assay; format: functional
[7] = tested on: Escherichia coli; assay: Antibacterial activity against Escherichia coli ATCC 25922 after 18 hrs by CLSI based broth microdilution method; format: functional; conditions: ATCC 25922, 18 h
[8] = Selectivity index, ratio of MHC10 for human RBC to geometric mean of peptide MIC for gram positive bacteria; format: toxicity; conditions: human red blood cells, read-out: Selectivity Index
[9] = tested on: Staphylococcus aureus; assay: Ratio of antibacterial activity against Staphylococcus aureus ATCC 25923 in presence of FeCl3 to antibacterial activity against Staphylococcus aureus ATCC 25923; format: functional
[10] = tested on: Klebsiella pneumoniae; assay: Potentiation of rifampicin-induced antibacterial activity against Klebsiella pneumoniae ATCC 700603 assessed as FICI after 18 hrs by checker board assay; format: functional
[11] = tested on: Staphylococcus aureus; assay: Ratio of antibacterial activity against Staphylococcus aureus ATCC 25923 in presence of MgCl2 to antibacterial activity against Staphylococcus aureus ATCC 25923; format: functional
[12] = tested on: Escherichia coli; assay: Induction of membrane disruption in Escherichia coli ATCC 25922 assessed as fracture in membrane at 4 times of MIC after 2 hrs by SEM analysis; format: functional, organism-based
[13] = tested on: DNA; assay: Binding affinity to Escherichia coli ATCC 25922 genomic DNA after 30 mins by agarose gel electrophoresis; format: nucleic-acid assay
[14] = tested on: Escherichia coli; assay: Potentiation of rifampicin-induced antibacterial activity against Escherichia coli ATCC 25922 assessed as FICI after 18 hrs by checker board assay; format: functional
[15] = tested on: Escherichia coli; assay: Antimicrobial activity against Escherichia coli ATCC 25922 at 1 mM preincubated for 6 hrs in presence of 2 ug/ml chymotrypsin and measured after 18 hrs by microplate reader analysis; format: functional, organism-based
[16] = tested on: Escherichia coli; assay: Antibiofilm activity against Escherichia coli ATCC 25922 after 24 hrs by crystal violet staining based assay; format: functional, organism-based
[17] = tested on: Escherichia coli; assay: Disruption of membrane integrity in Escherichia coli ATCC 25922 assessed as membrane damage by measuring PI fluorescence at 2 times of MIC incubated for 1 hr by PI dye based flow cytometric analysis (reference value: 1.35%); format: functional
[18] = tested on: Pseudomonas aeruginosa; assay: Potentiation of polymyxin B-induced antibacterial activity against Pseudomonas aeruginosa ATCC 27853 assessed as FICI after 18 hrs by checker board assay; format: functional
[19] = tested on: Escherichia coli; assay: Antibacterial activity against Escherichia coli ATCC 43837 after 18 hrs by CLSI based broth microdilution method; format: functional; conditions: ATCC 43837, 18 h
[20] = tested on: Escherichia coli; assay: Disruption of membrane integrity in Escherichia coli ATCC 25922 assessed as membrane damage by measuring PI fluorescence incubated for 1 hr by PI dye based flow cytometric analysis; format: functional, organism-based
[21] = tested on: Escherichia coli; assay: Antimicrobial activity against Escherichia coli ATCC 25922 at 1 mM preincubated for 6 hrs in presence of 2000 ug/ml trypsin and measured after 18 hrs by microplate reader analysis; format: functional, organism-based
[22] = tested on: Escherichia coli; assay: Potentiation of polymyxin B-induced antibacterial activity against Escherichia coli ATCC 25922 assessed as FICI after 18 hrs by checker board assay; format: functional
[23] = tested on: Escherichia coli; assay: Ratio of MIC for Escherichia coli ATCC 25922 preincubated for 6 hrs in presence of 10% mouse serum and measured after 18 hrs to MIC for antibacterial activity against Escherichia coli ATCC 25922 after 18 hrs; format: functional
[24] = tested on: Escherichia coli; assay: Antibiofilm activity against Escherichia coli ATCC 25922 at 2 times MIC after 24 hrs by crystal violet staining based assay; format: functional, organism-based
[25] = tested on: Pseudomonas aeruginosa; assay: Antibiofilm activity against Pseudomonas aeruginosa ATCC 27853 at 0.25 to 2 times of MIC after 24 hrs by crystal violet staining based assay; format: functional, organism-based
[26] = tested on: Escherichia coli; assay: Antibacterial activity against Escherichia coli ATCC 25922 at 0.5 times MIC incubated for 18 hrs measured for 15 passages by CLSI based broth microdilution method; format: functional, organism-based
[27] = tested on: Staphylococcus aureus; assay: Antibacterial activity against methicillin-resistant Staphylococcus aureus 936 after 18 hrs by CLSI based broth microdilution method; format: functional; conditions: Staphylococcus aureus, 936, 18 h
[28] = tested on: Staphylococcus aureus; assay: Ratio of antibacterial activity against Staphylococcus aureus ATCC 25923 in presence of KCl to antibacterial activity against Staphylococcus aureus ATCC 25923; format: functional
[29] = tested on: Bacillus subtilis; assay: Antibacterial activity against Bacillus subtilis ATCC 23857 after 18 hrs by CLSI based broth microdilution method; format: functional; conditions: ATCC 23857, 18 h
[30] = tested on: Erythrocyte; assay: Hemolytic activity in human RBC measured after 1 hr by microplate reader analysis; format: ADME, cell-based
[31] = tested on: Staphylococcus aureus; assay: Ratio of antibacterial activity against Staphylococcus aureus ATCC 25923 in presence of NaCl to antibacterial activity against Staphylococcus aureus ATCC 25923; format: functional
[32] = tested on: Staphylococcus aureus; assay: Antibiofilm activity against Staphylococcus aureus ATCC 25923 after 24 hrs by crystal violet staining based assay; format: functional, organism-based
[33] = tested on: Escherichia coli; assay: Induction of inner membrane permeabilization in Escherichia coli ATCC 43837 assessed as increase in ONPG release at 4 times of MIC by ONPG dye based assay; format: organism-based
[34] = tested on: Escherichia coli; assay: Ratio of antibacterial activity against Escherichia coli ATCC 25922 in presence of MgCl2 to antibacterial activity against Escherichia coli ATCC 25922; format: functional
[35] = tested on: Pseudomonas aeruginosa; assay: Antibiofilm activity against Pseudomonas aeruginosa ATCC 27853 after 24 hrs by crystal violet staining based assay; format: functional, organism-based
[36] = tested on: Escherichia coli; assay: Ratio of antibacterial activity against Escherichia coli ATCC 25922 in presence of FeCl3 to antibacterial activity against Escherichia coli ATCC 25922; format: functional
[37] = tested on: Pseudomonas aeruginosa; assay: Potentiation of rifampicin-induced antibacterial activity against Pseudomonas aeruginosa ATCC 27853 assessed as FICI after 18 hrs by checker board assay; format: functional
[38] = tested on: Escherichia coli; assay: Induction of outer membrane permeabilization in Escherichia coli ATCC 25922 measured up to 12 mins by NPN-dye based assay; format: organism-based
[39] = tested on: Escherichia coli; assay: Induction of ROS generation in Escherichia coli ATCC 25922; format: functional, organism-based
[40] = tested on: Staphylococcus aureus; assay: Antibacterial activity against Staphylococcus aureus ATCC 25923 after 18 hrs by CLSI based broth microdilution method; format: functional; conditions: ATCC 25923, 18 h
[41] = tested on: Escherichia coli; assay: Induction of membrane disruption in Escherichia coli ATCC 25922 assessed as corrugated membrane surface at 4 times of MIC after 2 hrs by SEM analysis; format: functional, organism-based

In the case of `CCCCCCCCCC(=O)NC(Cc1cn(CCCC[C@H](NC(C)=O)C(=O)NCC(=O)N[C@@H](CC(C)C)C(=O)N[C@@H](CC(C)C)C(=O)N[C@H](CCCCN)C(=O)N[C@@H](CCCNC(=N)N)C(=O)N[C@H](C(=O)N[C@H](CCCCN)C(=O)N[C@H](C(=O)N[C@@H](CC(C)C)C(=O)N[C@@H](CC(C)C)C(N)=O)[C@@H](C)O)[C@@H](C)CC)nn1)C(=O)NCC(=O)N[C@@H](CC(C)C)C(=O)N[C@@H](CC(C)C)C(=O)N[C@H](CCCCN)C(=O)N[C@@H](CCCNC(=N)N)C(=O)N[C@H](C(=O)N[C@H](CCCCN)C(=O)N[C@H](C(=O)N[C@@H](CC(C)C)C(=O)N[C@@H](CC(C)C)C(N)=O)[C@@H](C)O)[C@@H](C)CC` (some centres not stated), the Activity [1] is reported as 82.3%, the Ratio [2] is reported as 2 - 4 and the MIC [3] is reported as 8 µM (≈ 22 µg/mL). The Activity [4] was “Active”, the Activity [5] was “Active” and the “fractional inhibitory concentration index (FICI)” value [6] was 0.5625. For the same compound, the MIC [7] was 8 µM (≈ 22 µg/mL), the selectivity ratio [8] was 3.69 and the Ratio [9] was 2 - 4. For the same compound, the “fractional inhibitory concentration index (FICI)” value [10] was 0.5, the Ratio [11] was 2 - 4 and the Activity [12] was “Active”. For the same compound, the Activity [13] was “Dose-dependent effect”, the “fractional inhibitory concentration index (FICI)” value [14] was 0.3125 and the Activity [15] was “Active”. For the same compound, the inhibition [16] was “Dose-dependent effect”, the Activity [17] was 56.3% and the “fractional inhibitory concentration index (FICI)” value [18] was 0.25. For the same compound, the MIC [19] was 8 µM (≈ 22 µg/mL), the Activity [20] was “Dose-dependent effect” and the Activity [21] was “Active”. The “fractional inhibitory concentration index (FICI)” value [22] was 0.3125, the Ratio [23] was 2 and the inhibition [24] was “Active”. The inhibition [25] was “Active”, the Activity [26] was “Active” and the MIC [27] was 16 µM (≈ 44 µg/mL). The Ratio [28] was 2 - 4, the MIC [29] was 2 µM (≈ 5.51 µg/mL) and the MHC10 [30] was 32 µM. The Ratio [31] was 2 - 4, the inhibition [32] was “Dose-dependent effect” and the Activity [33] was “Active”. The Ratio [34] was 2 - 4, the inhibition [35] was “Dose-dependent effect” and the Ratio [36] was 2 - 4. For the same compound, the “fractional inhibitory concentration index (FICI)” value [37] was 0.5625, the Activity [38] was “Dose-dependent effect” and the Activity [39] was “inactive”. For the same compound, the MIC [40] was 8 µM (≈ 22 µg/mL) and the Activity [41] was “Active”.

With `CCCCCC(=O)NC(Cc1cn(CCCC[C@H](NC(C)=O)C(=O)NCC(=O)N[C@@H](CC(C)C)C(=O)N[C@@H](CC(C)C)C(=O)N[C@H](CCCCN)C(=O)N[C@@H](CCCNC(=N)N)C(=O)N[C@H](C(=O)N[C@H](CCCCN)C(=O)N[C@H](C(=O)N[C@@H](CC(C)C)C(=O)N[C@@H](CC(C)C)C(N)=O)[C@@H](C)O)[C@@H](C)CC)nn1)C(=O)NCC(=O)N[C@@H](CC(C)C)C(=O)N[C@@H](CC(C)C)C(=O)N[C@H](CCCCN)C(=O)N[C@@H](CCCNC(=N)N)C(=O)N[C@H](C(=O)N[C@H](CCCCN)C(=O)N[C@H](C(=O)N[C@@H](CC(C)C)C(=O)N[C@@H](CC(C)C)C(N)=O)[C@@H](C)O)[C@@H](C)CC` (some centres not stated) the Activity [1] was 38.5%, the Ratio [2] was 2 - 4 and the MIC [3] was 8 µM (≈ 21.6 µg/mL). The Activity [4] was “Active”, the Activity [5] was “Active” and the “fractional inhibitory concentration index (FICI)” value [6] was 0.1875. For the same compound, the MIC [7] was 8 µM (≈ 21.6 µg/mL), the selectivity ratio [8] was 11.6 and the Ratio [9] was 2 - 4. The “fractional inhibitory concentration index (FICI)” value [10] was 0.5625, the Ratio [11] was 2 - 4 and the Activity [12] was “Active”. The Activity [13] was “Dose-dependent effect”, the “fractional inhibitory concentration index (FICI)” value [14] was 0.5625 and the Activity [15] was “Active”. The inhibition [16] was “Dose-dependent effect”, the Activity [17] was 22.4% and the “fractional inhibitory concentration index (FICI)” value [18] was 0.3125. For the same compound, the MIC [19] was 8 µM (≈ 21.6 µg/mL), the Activity [20] was “Dose-dependent effect” and the Activity [21] was “Active”. The “fractional inhibitory concentration index (FICI)” value [22] was 0.375, the Ratio [23] was 2 and the inhibition [24] was “Active”. The inhibition [25] was “Active”, the Activity [26] was “Active” and the MIC [27] was 64 µM (≈ 173 µg/mL). The Ratio [28] was 2 - 4, the MIC [29] was 4 µM (≈ 10.8 µg/mL) and the MHC10 [30] was over 256 µM. The Ratio [31] was 2 - 4, the inhibition [32] was “Dose-dependent effect” and the Activity [33] was “Active”. The Ratio [34] was 2 - 4, the inhibition [35] was “Dose-dependent effect” and the Ratio [36] was 2 - 4. The “fractional inhibitory concentration index (FICI)” value [37] was 0.5, the Activity [38] was “Dose-dependent effect” and the Activity [39] was “inactive”. The MIC [40] was 64 µM (≈ 173 µg/mL) and the Activity [41] was “Active”.
